Columns and labels:
Type in all cases: in vivo, cynomolgus monkey
[1] = test system: cynomolgus monkeys (monkeys with normal intraocular pressure), selected monkeys with an inadequate response to latanoprost; experiment: Selection of monkeys with inadequate response to latanoprost: intraocular pressure after single latanoprost eye drop; details: for intraocular pressure change value: 0.005% (w/v) eye drop, 20 μL/eye once, 7 selected monkeys
Description: 1. Selection of monkeys with inadequate response to latanoprost Latanoprost eye drop was administered to cynomolgus monkeys (monkeys with normal intraocular pressure) and each individual animal was examined for responsiveness to latanoprost to select monkeys with an inadequate response to latanoprost.
(§1) (Eye Drop) • Latanoprost eye drop: Xalatan® Eye Drops 0.005% (w/v) (Pfizer Japan Inc.)
(Test Animals) • Cynomolgus monkeys: 32 animals (Sex/male)
(§2) <Methods for Administration and Measurement> • (1) An intraocular pressure was measured immediately before administering the test eye drop and was defined as the pre-administration intraocular pressure value (0 hour). • (2) The test eye drop was administered once (20 μL/eye) to one eye (right eye) of the test animals using a PIPETMAN. The contralateral eye was untreated. • (3) An intraocular pressure was measured at 2, 4, and 6 hours after the administration. The intraocular pressure was measured three times for each to calculate its average value. An intraocular pressure change value (mmHg) was calculated as the difference from the pre-administration intraocular pressure value (0 hour) at each measurement time point.
The test was conducted as a crossover study. A physiological saline solution was administered as a test eye drop to a control group. Two series of administering the latanoprost eye drop were conducted and designated as a latanoprost (first time) group and a latanoprost (second time) group, respectively.

[2] = test system: monkeys with an inadequate response to latanoprost; experiment: Test for effect of latanoprost on lowering intraocular pressure in monkeys with inadequate response to latanoprost; details: for intraocular pressure change value: 20 μL/eye once
Description: Latanoprost eye drop was administered to the monkeys with an inadequate response to latanoprost, and its effect on lowering the intraocular pressure at 10 and 12 hours after the administration was evaluated.
as §1
(§3) (Test Animals) • Cynomolgus monkeys: 7 animals (sex: male) selected in “1. Selection of monkeys with inadequate response to latanoprost”
as §2, with “10” for “2, 4,”, “12” for “6”

[3] = test system: monkeys with an inadequate response to latanoprost; experiment: Test for effect of sepetaprost on lowering intraocular pressure in monkeys with inadequate response to latanoprost; details: for intraocular pressure lowering action: 10 and 12 hours after the administration, in words; for intraocular pressure lowering width / intraocular pressure change value: 0.002% (w/v) eye drop; for intraocular pressure change value: 20 μL/eye once
Description: Sepetaprost eye drop was administered to monkeys with an inadequate response to latanoprost, and its effect on lowering the intraocular pressure at 10 and 12 hours after the administration was evaluated.
(Eye Drop) • Sepetaprost eye drop: Sepetaprost was dissolved in a base, and then, a sepetaprost eye drop with a concentration of 0.002% (w/v) was prepared by using a commonly used method.
as §3
as §2, with “[…].” for “PIPETMAN.”, “10” for “2, 4,”, “12” for “6”
The test was conducted as a crossover study. The above-mentioned base was administered as a test eye drop to a control group. Two series of administering the sepetaprost eye drop were conducted and designated as a sepetaprost (first time) group and a sepetaprost (second time) group, respectively.

[4] = 12 hours after administration, 0.005% (w/v) eye drop
[5] = first time group, 10 hours after administration
[6] = first time group, 12 hours after administration
[7] = second time group, 10 hours after administration
[8] = second time group, 12 hours after administration

Structure (SMILES): CC(C)OC(=O)CCC/C=C\C[C@@H]1[C@@H](CC[C@@H](O)CCc2ccccc2)[C@H](O)C[C@@H]1O [Latanoprost, latanoprost]
- change over time in the intraocular pressure ([1]; first time and second time groups, up to 6 hours after the administration, in words): little change over time
- intraocular pressure change value ([1]; first time group, 2 hours after administration): 1.0 mmHg
- intraocular pressure change value ([1]; first time group, 4 hours after administration): −0.2 mmHg
- intraocular pressure change value ([1]; first time group, 6 hours after administration): −0.6 mmHg
- intraocular pressure change value ([1]; second time group, 2 hours after administration): 0.4 mmHg
- intraocular pressure change value ([1]; second time group, 4 hours after administration): 0.0 mmHg
- intraocular pressure change value ([1]; second time group, 6 hours after administration): −0.1 mmHg
- intraocular pressure change value ([2]; 10 hours after administration, 0.005% (w/v) eye drop): −0.5 mmHg
- intraocular pressure lowering width [2, 4]: 1.2 mmHg
- intraocular pressure change value [2, 4]: −1.2 mmHg
- intraocular pressure lowering effect ([2]; up to 12 hours after the administration, in words): inadequate

Structure (SMILES): CC(C)OC(=O)CCC[C@H]1CC[C@@H]2[C@@H](/C=C/[C@@H](O)COc3cc(F)ccc3F)[C@H](O)C[C@@H]2OC1 [Sepetaprost, 2-propanyl 4-{(3S,5aR,6R,7R,8aS)-6-[(1E,3R)-4-(2,5-difluorophenoxy)-3-hydroxy-1-buten-1-yl]-7-hydroxyoctahydro-2H-cyclopenta[b]oxepin-3-yl}butanoate]
- intraocular pressure lowering action [3]: adequate
- intraocular pressure lowering action ([3]; listed as sepetaprost eye drop): significant
- intraocular pressure lowering width [3, 5]: 3.1 mmHg
- intraocular pressure change value [3, 5]: −3.1 mmHg
- intraocular pressure lowering width [3, 6]: 3.3 mmHg
- intraocular pressure change value [3, 6]: −3.3 mmHg
- intraocular pressure lowering width [3, 7]: 2.6 mmHg
- intraocular pressure change value [3, 7]: −2.6 mmHg
- intraocular pressure lowering width [3, 8]: 3.4 mmHg
- intraocular pressure change value [3, 8]: −3.4 mmHg

— patent US20230285411A1, “DRUG FORMULATION CONTAINING SEPETAPROST” (SANTEN PHARMACEUTICAL CO., LTD., priority 2020, published 2023)
